Measured values taken from patent US10981932B2, “Macrocyclic indole derivatives” (Bayer Aktiengesellschaft, priority 2016, dated 2021).
Structures can show the parent of a compound that is named as a salt.

How the values were obtained:
BCL-2 = target: T1, BCL-2 (Homo sapiens, UniProt P10415); assay: Protein-protein interaction assay BCL-2/Bad BH3 peptide (BCL-2 assay), TR-FRET; assay type: binding; settings: His-BCL-2 / Bad BH3-derived peptide, median
T1 construct: BCL-2 (amino acids 1-211, C-terminal fused to a hexahistidine (6×His) tag); purchased BPS Bioscience (San Diego, Calif., USA); host or cells: E. coli
Procedure: Protein-Protein Interaction Assay: BCL-2/Bad BH3 Peptide (BCL-2 Assay)
(§1) The dose-dependent inhibition by the compounds described in this invention of the interaction between BCL-2 and the BH3 domain of Bad (both human) was determined using a steady state binding competition assay with time-resolved fluorescence energy transfer (TR-FRET) readout. For that purpose BCL-2 (amino acids 1-211, C-terminal fused to a hexahistidine (6×His) tag and a synthetic Bad BH3-derived peptide of sequence Biotin-PEG2-PEG2-NLWAAQRYGRELRR-Nle-SDEFVDSFKK-amide (SEQ ID NO: 2) served as protein receptor and tracer ligand respectively. The recombinant BCL-2 protein (expressed in E. coli) was purchased from BPS Bioscience (San Diego, Calif., USA). The Bad BH3-derived peptide can be obtained from e.g. Biosyntan (Berlin, Germany).
(§2) In the assay 11 different concentrations of each compound (0.1 nM, 0.33 nM, 1.1 nM, 3.8 nM. 13 nM, 44 nM, 0.15 μM, 0.51 μM, 1.7 μM, 5.9 μM and 20 μM) were typically measured as duplicates in the same microtiter plate. For that, 100-fold concentrated DMSO solutions were prepared by serial dilutions (1:3.4) of a 2 mM stock solution in a clear, 384-well microtiter plate (Greiner Bio-One, Frickenhausen, Germany). From there, 50 nl were transferred in a dark test plate (Greiner Bio-One. Frickenhausen, Germany). The assay was initiated by addition of 2 μl of a 2,5-fold concentrated His-BCL-2 solution (usually for a 1 nM end concentration in 5 μl reaction volume) in aqueous assay buffer [50 mM Tris/HCl pH 7, 100 mM sodium chloride (NaCl), 50 mM potassium fluoride (KF), 0.005% Tween-20, 2 mM DTT, 0.1% bovine gamma globulin (BGG)] to the compounds in the assay plate. This was followed by a 10-minute incubation step at 22° C. for pre-equilibration of the putative complex between His-BCL-2 and the compounds.
(§3) The mixture was incubated in the dark for one hour at 22° C. and then overnight at 4° C. The formation of BCL-2/Bad complexes was determined by measuring the resonance energy transfer of the anti-His-Eu-cryptate antibody to the streptavidin-XL665 present in the reaction. For that purpose, the fluorescence emission at 620 nm and 665 nm after excitation at 330-350 nm was measured in a TR-FRET measuring instrument, for instance a Rubystar or a Pherastar (both from BMG Lab Technologies. Offenburg, Germany) or a Viewlux (Perkin-Elmer). The ratio of the emission at 665 nm and at 622 nm was used as indicator of the amount of BCL-2/Bad complexes present.
(§4) The resulting data (ratio) were normalized, taking 0% inhibition as the mean value of control measurements (usually 32 data points) where all reagents were included. In this case 50 nl DMSO were used instead of compounds. A 100% inhibition corresponded to the mean value of control measurements (usually 32 data points) where all reagents except BCL-2 were included. IC50 values were determined by regression analysis based on a 4 parameter equation (minimum, maximum, IC50, Hill; Y=Max+(Min−Max)/(1+(X/IC50)^Hill) using the Screener Software (Genedata).

BCL-XL = target: T2, BCL-XL (Homo sapiens, UniProt Q07817); assay: Protein-protein interaction assay BCL-XL/Bad BH3 peptide (BCL-XL assay), TR-FRET; assay type: binding; settings: His-BCL-XL / Bad BH3-derived peptide
T2 construct: BCL-XL (amino acids 1-212, C-terminal fused to a hexahistidine (6×His) tag); purchased BPS Bioscience (San Diego, Calif., USA); host or cells: E. coli
Procedure: Protein-Protein Interaction Assay: BCL-XL/Bad BH3 Peptide (BCL-XL Assay)
as §1, with “tag (SEQ ID NO: 3)” for “tag”, “Biotin-PEG2-PEG2-NLWAAQRYGRELRR-NIe-SDEFVDSFKK-amide” for “Biotin-PEG2-PEG2-NLWAAQRYGRELRR-Nle-SDEFVDSFKK-amide”
as §2, with “3.8 nM,” for “3.8 nM.”, “concentrated Hs-BCL-XL” for “concentrated His-BCL-2”, “between His-BCL-XL” for “between His-BCL-2”
as §3, with “BCL-XL/Bad” for “BCL-2/Bad”, “anti-His- Eu-cryptate” for “anti-His-Eu-cryptate”, “Technologies,” for “Technologies.”
as §4, with “BCL-XL” for “BCL-2”

T2 sequence (Q07817 1-212): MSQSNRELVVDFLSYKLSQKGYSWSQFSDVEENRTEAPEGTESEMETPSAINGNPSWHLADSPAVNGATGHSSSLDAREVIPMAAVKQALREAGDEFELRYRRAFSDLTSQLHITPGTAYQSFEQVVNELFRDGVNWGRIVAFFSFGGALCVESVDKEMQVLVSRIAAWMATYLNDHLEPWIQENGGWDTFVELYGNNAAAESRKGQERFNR
T1 sequence (P10415 1-211): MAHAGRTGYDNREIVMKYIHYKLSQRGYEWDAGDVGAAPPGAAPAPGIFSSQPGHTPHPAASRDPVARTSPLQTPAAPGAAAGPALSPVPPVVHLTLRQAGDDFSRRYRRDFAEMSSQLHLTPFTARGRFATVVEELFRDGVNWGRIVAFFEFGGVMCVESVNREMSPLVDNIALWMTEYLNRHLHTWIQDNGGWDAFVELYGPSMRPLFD

SMILES	IC50 (BCL-2) [µM]	IC50 (BCL-XL) [µM]
Cc1nn(C)c2c1-c1cccc3c(CCCOc4cccc5ccccc45)c(C(=O)O)n(c13)CCCCOCC2 (racemic) [Example 017, (rac)-1,3-dimethyl-7-[3-(1-naphthyloxy)propyl]-10,11,12,13,15,16-hexahydro-1H-pyrazolo[4′,3′:9,10][1,6]oxazacyclododecino[8,7,6-hi]indole-8-carboxylic Acid]	> 20	> 20
Cc1ccc2c(CCCOc3cccc4c3CCCC4)c(C(=O)O)n3c2c1-c1c(C)nn(C)c1COCCCC3 (racemic) [Example 039, (rac)-1,3,4-trimethyl-7-[3-(5,6,7,8-tetrahydronaphthalen-1-yloxy)propyl]-110,11,12,13,15-hexahydropyrazolo[4′3′:9,10][1,6]oxazacycloundecino[8,7,6-hi]indole-8-carboxylic Acid]	> 20	> 20
CC(C)c1c2c(nn1C)CN(C)CCCn1c(C(=O)O)c(CCCOc3cccc4ccccc34)c3cccc-2c31 (racemic) [Example 113, (rac)-7,10-dimethyl-1-[3-(naphthalen-1-yloxy)propyl]-11-(propan-2-yl)-4,5,6,7,8,10-hexahydropyrazolo[3′,4′:7,8][1,5]diazecino[9,10,1-hi]indole-2-carboxylic Acid]	> 20	> 20
CCc1c2c(nn1C)CN(C)CCCn1c(C(=O)O)c(CCCOc3cccc4ccccc34)c3cccc-2c31 (racemic) [Example 141, (rac)-11-ethyl-7,10-dimethyl-1-[3-(1-naphthyloxy)propyl]-4,5,6,7,8,10-hexahydropyrazolo[3′,4′:7,8][1,5]diazecino[9,10,1-hi]indole-2-carboxylic Acid]	> 20	> 20
CCc1c2c(nn1C)CN(C)CCCn1c(C(=O)O)c(CCCOc3cccc4ccccc34)c3ccc(C)c-2c31 (racemic) [Example 144, (rac)-11-ethyl-7,10,12-trimethyl-1-[3-(1-naphthyloxy)propyl]-4,5,6,7,8,10-hexahydropyrazolo[3′,4′:7,8][1,5]diazecino[9,10,1-hi]indole-2-carboxylic Acid]	> 20	> 20
CCc1c2c(nn1C)COCCCCn1c(C(=O)O)c(CCCOc3cccc4ccccc34)c3ccc(C)c-2c31 (racemic) [Example 153, (rac)-3-Ethyl-2,4-dimethyl-7-[3-(1-naphthyloxy)propyl]-2,10,11,12,13,15-hexahydropyrazolo[4′,3′:9,10][1,6]oxazacycloundecino[8,7,6-hi]indole-8-carboxylic Acid]	> 20	> 20

Next, values leading:

IC50 (BCL-2) [µM]	IC50 (BCL-XL) [µM]	SMILES
> 20	> 20	Cc1c2c(nn1C)COCCCCn1c(C(=O)O)c(CCCOc3cccc4ccccc34)c3cccc-2c31 (racemic) [Example 1-36, (rac)-2,3-dimethyl-7-[3-(naphthalen-1-yloxy)propyl]-2,10,11,12,13,15-hexahydropyrazolo[4′,3′:9,10][1,6]oxazacycloundecino[8,7,6-hi]indole-8-carboxylic Acid]
> 20	> 20	CC(C)OCc1nn(C)c2c1-c1cccc3c(CCCOc4cccc5ccccc45)c(C(=O)O)n(c13)CCCCN(C)C2 (single isomer, unassigned) [Example 1-74, 1,14-dimethyl-7-[3-(naphthalen-1-yloxy)propyl]-3-[(propan-2-yloxy)methyl]-10,11,12,13,14,15-hexahydro-1H-pyrazolo[3′,4′:8,9][1,6]diazacycloundecino[10,11,1-hi]indole-8-carboxylic Acid]
> 20	> 20	CN1CCCn2c(C(=O)O)c(CCCOc3cccc4ccccc34)c3cccc(c32)-c2c(COc3ccc(N4CCN(S(=O)(=O)N(C)C)CC4)cc3)nn(C)c2C1 (single isomer, unassigned; enantiomer 1) [Example 1-15, (+)-11-({4-[4-(dimethylsulfamoyl)piperazin-1-yl]phenoxy}methyl)-7,9-dimethyl-1-[3-(naphthalen-1-yloxy)propyl]-4,5,6,7,8,9-hexahydropyrazolo[3′,4′:7,8][1,5]diazecino[9,10,1-hi]indole-2-carboxylic Acid (Enantiomer 1)]
> 20	> 20	Cn1nc(COc2ccc(N3CCN(C(=O)C4CC4)CC3)cc2)c2c1COCCCCn1c(C(=O)O)c(CCCOc3cccc4ccccc34)c3cccc-2c31 (single isomer, unassigned; enantiomer 1) [Example 1-22, 3-({4-[4-(cyclopropylcarbonyl)piperazin-1-yl]phenoxy}methyl)-1-methyl-7-[3-(naphthalen-1-yloxy)propyl]-1,10,11,12,13,15-hexahydropyrazolo[4′,3′:9,10][1,6]oxazacycloundecino[8,7,6-hi]indole-8-carboxylic Acid (Enantiomer 1)]
> 20	> 20	Cc1nn(C)c2c1-c1cccc3c(CCCOc4cccc5ccccc45)c(C(=O)O)n(c13)CCCN(C)C2 (single isomer, unassigned; enantiomer 1) [Example 1-31, 7,9,11-trimethyl-1-[3-(naphthalen-1-yloxy)propyl]-4,5,6,7,8,9-hexahydropyrazolo[3′,4′:7,8][1,5]diazecino[9,10,1-hi]indole-2-carboxylic Acid-N-ethylethanamine Salt (Enantiomer 1)]
